Reference: patent US20110104301A1, “METHODS OF REDUCING PAIN AND INFLAMMATION” (Georgetown University, A Congressionally Chartered …, priority 2008, published 2011)

Tests used:
[1] = target: T1, dTRPA1-mN chimera (UniProt Q7Z020+Q8BLA8); test: Current-voltage recordings of chimera dTRPA1-mN; assay type: cell-based; details: mouse N-terminus substituted
T1 construct: mouse TRPA1 N-terminus (720 amino acids); expressed in transfected cells
Method: A genetic approach was used to identify critical sites in TRPA1 and TRPV1 required for activation by general anesthetics. Drosophila TRPA1 is insensitive to desflurane (at concentrations up to 3 mM). […] Note that dTRPA1 is insensitive to AITC. Next, several chimeric TRP proteins containing dTRPA1 (unresponsive to desflurane) and mTRPA1 were tested. For the dTRPA1-mN chimera, the mouse 720 amino acid N-terminus was exchanged for the drosophila N-terminus. The N-terminal domain contains essential binding sites for AITC, and therefore studying this chimera tests an important role for the N-terminus in anesthetic-sensing. […] The mTRPA1-dTM5 construct was then studied, which is the mouse protein containing the fifth transmembrane domain of the drosophila protein.

[2] = tested on: mice; test: AITC (mustard oil)-induced ear swelling, neurogenic inflammation during anesthesia; assay type: in vivo, mouse; details: 1.2 MAC
Method: Behavioral Experiments and Neurogenic Inflammation. Animal experiments were performed according to National Institutes of Health and institutional guidelines. […] Nocifensive behavior (nose wiping in sawdust bedding) was recorded for 2 min with a video camera and the duration was subsequently measured by a blinded observer. […] Electromyographic (EMG) activity was recorded via platinum electrodes from the semitendinosus muscle in mice anesthetized with urethane (1.3 g/kg) as described in Ando and Watanabe, Br J. Anaesth. […] The EMG signal was recorded by using a low-pass cutoff frequency of 200 Hz and integrated offline by using a 100-ms time window. […] Ear thickness was recorded by using an engineer's micrometer (Mitutoyo Corp.) before mustard-oil application and thereafter every 15 min for 60 min of anesthesia and 60 min of recovery.

T1 sequence (Q8BLA8+Q7Z020 fused, change not shown): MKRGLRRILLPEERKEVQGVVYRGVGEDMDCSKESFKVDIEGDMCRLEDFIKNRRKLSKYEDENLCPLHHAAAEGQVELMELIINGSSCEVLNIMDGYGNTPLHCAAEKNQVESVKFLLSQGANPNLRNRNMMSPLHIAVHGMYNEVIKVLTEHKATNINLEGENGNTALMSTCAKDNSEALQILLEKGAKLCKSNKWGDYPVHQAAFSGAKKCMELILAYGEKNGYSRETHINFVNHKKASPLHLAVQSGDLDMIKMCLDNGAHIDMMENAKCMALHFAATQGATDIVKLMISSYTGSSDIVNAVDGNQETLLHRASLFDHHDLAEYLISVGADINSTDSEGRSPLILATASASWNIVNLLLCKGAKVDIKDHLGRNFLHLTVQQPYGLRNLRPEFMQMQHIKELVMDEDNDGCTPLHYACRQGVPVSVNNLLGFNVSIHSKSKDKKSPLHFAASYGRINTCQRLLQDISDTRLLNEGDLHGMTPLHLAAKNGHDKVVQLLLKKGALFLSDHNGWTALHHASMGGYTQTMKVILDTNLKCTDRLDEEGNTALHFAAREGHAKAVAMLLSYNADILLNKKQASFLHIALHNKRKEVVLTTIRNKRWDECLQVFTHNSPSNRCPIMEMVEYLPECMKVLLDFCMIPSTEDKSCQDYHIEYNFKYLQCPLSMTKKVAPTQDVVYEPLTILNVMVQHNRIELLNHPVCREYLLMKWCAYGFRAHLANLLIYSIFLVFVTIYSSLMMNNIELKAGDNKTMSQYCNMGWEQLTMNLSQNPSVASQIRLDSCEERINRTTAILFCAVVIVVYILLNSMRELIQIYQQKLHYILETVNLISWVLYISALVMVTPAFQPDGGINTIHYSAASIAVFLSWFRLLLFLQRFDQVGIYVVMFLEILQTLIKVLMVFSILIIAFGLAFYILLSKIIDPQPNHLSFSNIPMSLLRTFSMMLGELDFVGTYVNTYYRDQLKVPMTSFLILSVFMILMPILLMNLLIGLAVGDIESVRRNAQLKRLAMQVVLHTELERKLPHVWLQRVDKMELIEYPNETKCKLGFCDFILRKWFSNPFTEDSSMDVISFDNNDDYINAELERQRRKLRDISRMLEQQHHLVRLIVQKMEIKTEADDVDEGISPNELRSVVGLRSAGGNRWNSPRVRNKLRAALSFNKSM

SMILES | Response of dTRPA1-mN chimera [1] | AITC-induced ear swelling during anesthesia, compared with sevoflurane ([2]; AITC 0.6%, 15-120 min, n=7, P<0.01) | Swelling in the unpainted ear ([2]; at 90 and 120 min)
FC(F)OC(F)C(F)(F)F (stereo not drawn) [desflurane] | no responses | – | –
FC(F)OC(Cl)C(F)(F)F (stereo not drawn) [isoflurane] | – | significantly greater swelling | small increase in swelling
